Measurements as given in patent US4280001A, “Biologically pure culture” (priority 1976, dated 1981).
Bridge positions count the residues as written; N and C are the ends. Square brackets hold non-standard residues; d marks the D form. Peptide text beside a SMILES is read from it. * marks the point of attachment. Ileψ(thiazoline)Cys = CC[C@H](C)[C@H](N)C1=N[C@H](C(=O)*)CS1; dOrn = NCCC[C@@H](N)C(=O)O

What was measured:
Format in all cases: cell-based
[1] = test system: Staphylococcus aureus ATCC 6538 resistant to rifampicin; experiment: MIC against resistant Staphylococcus aureus strains (Table III); details: ATCC6538
From the text: (§1) The new antibiotic substance is active also against microorganism strains which are resistant to other commonly used antibiotics.

[2] = test system: Staphylococcus aureus ATCC 6538 resistant to kanamycin; experiment: as above; details: ATCC6538
From the text: as §1

[3] = test system: Staphylococcus aureus ATCC 6538 resistant to neomycin; experiment: as above; details: S. aureus ATCC 6538 resistant to neomycin
From the text: as §1

[4] = test system: Staphylococcus aureus ATCC 6538 resistant to lincomycin; experiment: microbe, parasite or virus in culture; details: ATCC6538
From the text: as §1

[5] = test system: Staphylococcus aureus ATCC 6538 resistant to cephaloridine; experiment: microbe, parasite or virus in culture; details: ATCC6538
From the text: as §1

[6] = test system: Staphylococcus aureus ATCC 6538 resistant to bacitracin; experiment: microbe, parasite or virus in culture; details: ATCC6538
From the text: as §1

[7] = test system: Staphylococcus aureus Tour resistant to streptomycin; experiment: MIC against resistant Staphylococcus aureus strains (Table III); details: S. aureus Tour resistant to streptomycin
From the text: as §1

[8] = test system: Staphylococcus aureus ATCC 6538 resistant to erythromycin; experiment: microbe, parasite or virus in culture; details: ATCC6538
From the text: as §1

[9] = test system: Staphylococcus aureus ATCC 6538 resistant to chloramphenicol; experiment: microbe, parasite or virus in culture; details: ATCC6538
From the text: as §1

[10] = test system: Staphylococcus aureus ATCC 6538 resistant to tetracycline; experiment: MIC against resistant Staphylococcus aureus strains (Table III); details: ATCC6538
From the text: as §1

[11] = test system: Staphylococcus aureus ATCC 6538 resistant to penicillin; experiment: microbe, parasite or virus in culture; details: ATCC6538
From the text: as §1

Compound: CO[C@H]1/C=C/O[C@@]2(C)Oc3c(C)c(O)c4c(O)c(c(/C=N/N5CCN(C)CC5)c(O)c4c3C2=O)NC(=O)/C(C)=C\C=C\[C@H](C)[C@H](O)[C@@H](C)[C@@H](O)[C@@H](C)[C@H](OC(C)=O)[C@@H]1C [rifampicin]
- MIC [1]: > 100 µg/mL

Compound: NC[C@H]1O[C@H](O[C@H]2[C@H](O)[C@@H](O[C@H]3O[C@H](CO)[C@@H](O)[C@H](N)[C@H]3O)[C@H](N)C[C@@H]2N)[C@H](O)[C@@H](O)[C@@H]1O [kanamycin]
- MIC [2]: > 100 µg/mL

Compound: neomycin
- MIC [3]: > 100 µg/mL

Compound: CCC[C@@H]1C[C@@H](C(=O)N[C@@H]([C@H]2O[C@H](SC)[C@H](O)[C@@H](O)[C@H]2O)[C@@H](C)O)N(C)C1 [lincomycin]
- MIC [4]: > 100 µg/mL

Compound: O=C(Cc1cccs1)N[C@@H]1C(=O)N2C(C(=O)[O-])=C(C[n+]3ccccc3)CS[C@H]12 [cephaloridine]
- MIC [5]: > 100 µg/mL

Compound: CC[C@H](C)[C@H](N)C1=N[C@H](C(=O)N[C@@H](CC(C)C)C(=O)N[C@H](CCC(=O)O)C(=O)N[C@H](C(=O)N[C@H]2CCCCNC(=O)[C@H](CC(N)=O)NC(=O)[C@@H](CC(=O)O)NC(=O)[C@H](Cc3cnc[nH]3)NC(=O)[C@@H](Cc3ccccc3)NC(=O)[C@H]([C@@H](C)CC)NC(=O)[C@@H](CCCN)NC2=O)[C@@H](C)CC)CS1 [bacitracin] ({Ileψ(thiazoline)Cys}-L[dE]IK[dOrn]I[dF]H[dD]N; lactam 4-C)
- MIC [6]: > 100 µg/mL

Compound: [H]/N=C(/N)N[C@H]1[C@H](O)[C@@H](O)[C@H](O[C@@H]2O[C@@H](C)[C@](O)(C=O)[C@H]2O[C@@H]2O[C@@H](CO)[C@H](O)[C@@H](O)[C@@H]2NC)[C@@H](N/C(N)=N\[H])[C@@H]1O [streptomycin]
- MIC [7]: > 100 µg/mL

Compound: CC[C@H]1OC(=O)[C@H](C)[C@@H](O[C@H]2C[C@@](C)(OC)[C@@H](O)[C@H](C)O2)[C@H](C)[C@@H](O[C@@H]2O[C@H](C)C[C@H](N(C)C)[C@H]2O)[C@](C)(O)C[C@@H](C)C(=O)[C@H](C)[C@@H](O)[C@]1(C)O [erythromycin]
- MIC [8]: > 100 µg/mL

Compound: O=C(N[C@H](CO)[C@H](O)c1ccc([N+](=O)[O-])cc1)C(Cl)Cl [chloramphenicol]
- MIC [9]: > 100 µg/mL

Compound: CN(C)C1C(=O)C(C(N)=O)=C(O)C2(O)C(=O)C3=C(O)c4c(O)cccc4C(C)(O)C3CC12 (centres unmarked) [tetracycline]
- MIC [10]: > 100 µg/mL

Compound: CC1(C)S[C@@H]2[C@H](NC(=O)Cc3ccccc3)C(=O)N2[C@H]1C(=O)O [penicillin]
- MIC [11]: > 100 µg/mL
